# Reference: US11261160B2, “Process for the preparation of N-(4-(6,7-dimethoxyquinolin-4-yloxy)phenyl)-N′-(4-fluorophenyl)cyclopropane-1, 1-dicarboxamide, (2S)-hydroxybutanedioate and its polymorphs thereof” (MSN LABORATORIES PRIVATE LIMITED, R&D CENTER, priority 2016, dated 2022)
# Experiments:
# [1] = Hygroscopic stability for 24 hours (P-XRD); format: physicochemical; conditions: kept in the desiccator for 24 hours; 3.0 gms sample
# Experimental: Hygroscopic Stability for 24 Hours:
# Samples of crystalline form-S of Cabozantinib (S)-malate (3.0 gms) is kept in the desiccator for 24 hours.
# (§1) PXRD analysis of compounds produced by the present invention were carried out using BRUKER IDS ADVANCE/AXS X-Ray diffractometer using Cu Kα radiation of wavelength 1.5406 A° and continuous scan speed of 0.03°/min.
# [2] = Thermal stability at 60° C. (P-XRD); format: physicochemical; conditions: heating in a vacuum dryer at 60° C. for 24 hours; 3.0 gms sample
# Experimental: Thermal Stability at 60° C.:
# Samples of crystalline form-S of Cabozantinib (S)-malate (3.0 gms) is subjected to heating in a vacuum dryer at 60° C. for 24 hours.
# as §1
compound,measurement,setting,value
"COc1cc2nccc(Oc3ccc(NC(=O)C4(C(=O)Nc5ccc(F)cc5)CC4)cc3)c2cc1OC.O=C(O)C[C@H](O)C(=O)O [N-(4-(6,7-dimethoxyquinolin-4-yloxy)phenyl)-N′-(4-fluorophenyl)cyclopropane-1,1-dicarboxamide (S)-malate]",Hygroscopic stability for 24 hours by P-XRD pattern,[1],stable
same,Thermal stability at 60° C. by P-XRD pattern,[2],stable
